# Assay results: patent US7683092B2, “Crystalline forms of antidiabetic compounds” (Merck Sharp & Dohme Corp., priority 2005, dated 2010)
# Tests used:
# [1] = Thermodynamic stability of crystal forms; conditions: among free acid crystal forms of Compound II
# [2] = Hygroscopicity of the crystalline form; type: physicochemical; conditions: solid crystalline form
smiles,measurement,setting,value
"CC[C@@H](Oc1cccc(Cn2c(C)c(C(=O)c3ccc(Cl)cc3)c3ccc(OC(F)(F)F)cc32)c1)C(=O)O [Acid Form C, (2R)-2-{3-[[3-(4-chlorobenzoyl)-2-methyl-6-(trifluoromethoxy)-1H-indol-1-yl]methyl]phenoxy}butyric acid]",thermodynamic stability of crystal form,[1],thermodynamically stable
same,thermodynamic stability of crystal form,[1]; listed as Form C free acid,most thermodynamically stable acid form
"CC[C@@H](Oc1cccc(-n2c(C)c(C(=O)c3ccc(OC)cc3)c3ccc(OC(F)(F)F)cc32)c1)C(=O)O [crystalline dihydrate, (2R)-2-{3-[3-(4-methoxybenzoyl)-2-methyl-6-(trifluoromethoxy)-1H-indol-1-yl]phenoxy}butanoic acid]",hygroscopicity,[2],non-hygroscopic
